Assay results: patent US10010574B2, “Silk peptide for improving neuroprotective and neurofunctional effects and a method of its preparation” (BRAINGUARD CO., LTD., priority 2004, dated 2018)

Tested on: depression animal model
Assay: Forced swimming test (depression animal model)
Type: in vivo, Sprague Dawley rats
Conditions: P<0.05
Procedure: Four Sprague Dawley rats (140-180 g, Dae Han BioLink Co., Korea) each box were placed under constant condition (temperature: 25±1° C., relative humidity: 60±10%), and fed with unlimited water and food for 1 week. Fifty rats were selected for experiment among the rats by excluding ones that were undeveloped, show less motion or abnormal behavior in forced swimming test.
As a standard method for behavioral despair test, a forced swimming test (FST) was used in this experiment, which is known as principal test for verify anti-depression efficacy.
A rat was placed for 15 minutes in a transparent cylindrical water tank with 40 cm of height and 18 cm of diameter, which was filled with 15 cm deep water. […] The immobilization state typically refers to a state that a rat pushes only its head above the surface and was in a minimum motion for keeping itself afloat. After forced swimming test, the rat was dried at 37° C. for 30 minutes and returned to the box.
After 24 hours, the second forced swimming was performed for 5 minutes under the same condition with the first forced swimming test, and total immobilization time was measured. […] The immobilization time was measured by recording total process of the forced swimming and comparing between the control group and the experiment group. Values measured by 3 different analyzers were averaged and used as an analysis data. […]

CN(C)CCCN1c2ccccc2CCc2ccccc21 [imipramine]
Average immobilization time, 7-day repeated administration (oral one time a day for 7 days, FIG. 23): significantly decreased | Average immobilization time, one time urgent administration (silk peptide 1 g/kg oral, imipramine 20 mg/kg, 1 hour before second forced swimming, FIG. 22): significantly decreased
